EC50, IC50 and AC50 data for four molecules are collected here from ChEMBL document CHEMBL1201862, “PubChem BioAssay data set” (2004).

For experiment [1], the target named is T1, Heat shock factor protein 1 (Mus musculus, UniProt P38532).
T1 sequence (P38532 whole entry): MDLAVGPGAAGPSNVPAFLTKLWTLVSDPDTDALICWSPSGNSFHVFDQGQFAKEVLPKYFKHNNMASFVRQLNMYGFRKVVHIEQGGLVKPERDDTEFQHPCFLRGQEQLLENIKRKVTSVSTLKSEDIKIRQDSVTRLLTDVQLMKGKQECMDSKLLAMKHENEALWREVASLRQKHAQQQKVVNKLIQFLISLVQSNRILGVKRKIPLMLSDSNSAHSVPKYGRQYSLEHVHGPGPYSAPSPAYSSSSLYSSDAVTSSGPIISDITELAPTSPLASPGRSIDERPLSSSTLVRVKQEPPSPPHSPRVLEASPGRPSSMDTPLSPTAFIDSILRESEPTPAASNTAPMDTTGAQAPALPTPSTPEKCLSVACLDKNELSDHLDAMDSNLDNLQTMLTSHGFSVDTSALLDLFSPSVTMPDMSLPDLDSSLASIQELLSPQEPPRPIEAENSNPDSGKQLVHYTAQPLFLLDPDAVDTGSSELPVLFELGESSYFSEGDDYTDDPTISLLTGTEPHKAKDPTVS
The experiment in a line: decrease of HSF1-responsive luciferase luminescence – cell-based, NIH3T3, dose retest, confirmation (AID 2382).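 Further: NIH3T3 fibroblasts with HSF1-driven luciferase reporter stressed by proteasome inhibitor MG132; luminescence from HSF1-driven luciferase expression after 8 hours of MG132 stress.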 Format: functional.

In experiment [2] the target is Solute carrier family 12 member 2/member 5 (Homo sapiens, UniProt P55011+Q9H2X9). The experiment in a line: KCC2 and NKCC1 inhibition by rubidium flux, cell-based, NKCC1 counter-screen (AID 1734). It counts as functional, HEK293. On the technique in general: Counterscreens check selectivity or assay interference.
Experiment [3] concerns the target T2, Sentrin-specific protease 1 (Homo sapiens, UniProt Q9P0U3).
T2 sequence (Q9P0U3 whole entry): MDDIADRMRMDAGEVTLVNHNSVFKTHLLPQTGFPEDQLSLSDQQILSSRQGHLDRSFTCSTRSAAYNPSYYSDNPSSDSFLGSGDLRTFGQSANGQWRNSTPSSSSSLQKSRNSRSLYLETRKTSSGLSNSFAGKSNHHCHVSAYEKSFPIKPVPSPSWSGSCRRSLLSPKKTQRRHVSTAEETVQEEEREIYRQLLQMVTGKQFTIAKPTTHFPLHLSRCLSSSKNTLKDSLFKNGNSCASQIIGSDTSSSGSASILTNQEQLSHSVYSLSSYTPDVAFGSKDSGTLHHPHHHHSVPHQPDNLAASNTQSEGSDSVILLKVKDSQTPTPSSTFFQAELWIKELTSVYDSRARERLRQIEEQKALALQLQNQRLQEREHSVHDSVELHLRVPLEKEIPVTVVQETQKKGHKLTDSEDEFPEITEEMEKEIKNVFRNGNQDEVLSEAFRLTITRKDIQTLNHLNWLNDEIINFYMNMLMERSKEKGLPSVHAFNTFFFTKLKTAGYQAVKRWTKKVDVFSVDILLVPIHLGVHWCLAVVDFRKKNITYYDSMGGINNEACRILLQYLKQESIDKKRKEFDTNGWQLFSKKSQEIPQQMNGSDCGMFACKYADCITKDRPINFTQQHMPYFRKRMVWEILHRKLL
The experiment in a line: Dose response confirmation of small molecule inhibitors of the catalytic domain of the SUMO protease, SENP1 in a FRET assay. Format: functional. Conditions: read-out: IC50_Mean.

The target of experiment [4] is T3, Bcl-2-related protein A1 (Mus musculus, UniProt Q07440).
T3 sequence (Q07440 whole entry): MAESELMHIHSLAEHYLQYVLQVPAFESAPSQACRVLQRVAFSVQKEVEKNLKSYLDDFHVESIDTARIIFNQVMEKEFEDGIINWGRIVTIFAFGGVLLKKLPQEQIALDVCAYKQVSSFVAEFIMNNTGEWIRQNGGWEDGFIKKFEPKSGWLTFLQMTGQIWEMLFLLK
The experiment is described as follows: small-molecule antagonists of Bfl-1/BH3 interaction – biochemical, TR-FRET, mouse Bfl-1, confirmation (AID 621).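 Further: TR-FRET binding of GST-Bfl-1 to FITC-labelled Bid peptide via terbium antibody.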

For experiment [5], the target named is T3, Bcl-2-related protein A1. The experiment in a line: displacement of Bid BH3 peptide from Bfl-1 – biochemical, fluorescence polarization, FITC-Bid, mouse, primary screen (AID 432). (Polarisation of emitted light reports the rotation of a fluorescent probe.)
The target of experiment [6] is T2, Sentrin-specific protease 1. The experiment in a line: SENP1 catalytic domain blockers, concentration series – biochemical, kinetic FRET, dose response (AID 651697). Format: functional. Conditions: read-out: IC50_Mean.
For a further experiment, the target named is T4, 14-3-3 protein gamma (Homo sapiens, UniProt P61981).
T4 sequence (P61981 whole entry): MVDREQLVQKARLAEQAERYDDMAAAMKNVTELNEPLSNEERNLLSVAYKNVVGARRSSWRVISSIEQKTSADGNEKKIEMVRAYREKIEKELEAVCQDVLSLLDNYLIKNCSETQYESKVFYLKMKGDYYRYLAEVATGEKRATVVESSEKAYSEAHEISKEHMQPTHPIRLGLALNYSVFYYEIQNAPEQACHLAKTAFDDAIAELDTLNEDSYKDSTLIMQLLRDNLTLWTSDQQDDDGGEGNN
The experiment is described as follows: modulators of 14-3-3 gamma client binding – dose response (AID 711). It counts as functional.

Experiment [7] addresses T5, Endoribonuclease toxin MazF (Escherichia coli K-12, UniProt P0AE70).
T5 sequence (P0AE70 whole entry): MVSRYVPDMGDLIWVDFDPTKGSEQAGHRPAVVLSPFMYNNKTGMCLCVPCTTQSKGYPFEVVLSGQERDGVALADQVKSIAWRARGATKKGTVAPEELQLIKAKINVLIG
The experiment is described as follows: substrate-only fluorescence increase artefacts – biochemical, single-stranded RNase substrate, counter-screen for MazEF activator project, dose response (AID 588502). Format: functional.

In experiment [8] the target is UDP-galactopyranose mutase (Mycobacterium tuberculosis, UniProt P9WIQ1). The experiment in a line: Inhibitors of Mycobacterium tuberculosis UDP-galactopyranose mutase (UGM) enzyme Measured in Biochemical System Using Plate Reader - 2105-02_Inhibitor_Dose_CherryPick_Activity. [Related pubchem assays (depositor defined):AID504439].
In a further experiment the target is Heat shock protein HSP90 (Homo sapiens, UniProt P07900+P08238). The experiment in a line: Hsp90 blockade concentration-response – dose response (AID 712). Format: functional.
Experiment [9] addresses T6, Corticotropin-releasing factor receptor 2/Corticotropin-releasing factor-binding protein (Homo sapiens, UniProt P24387+Q13324).
T6 sequence (Q13324 whole entry): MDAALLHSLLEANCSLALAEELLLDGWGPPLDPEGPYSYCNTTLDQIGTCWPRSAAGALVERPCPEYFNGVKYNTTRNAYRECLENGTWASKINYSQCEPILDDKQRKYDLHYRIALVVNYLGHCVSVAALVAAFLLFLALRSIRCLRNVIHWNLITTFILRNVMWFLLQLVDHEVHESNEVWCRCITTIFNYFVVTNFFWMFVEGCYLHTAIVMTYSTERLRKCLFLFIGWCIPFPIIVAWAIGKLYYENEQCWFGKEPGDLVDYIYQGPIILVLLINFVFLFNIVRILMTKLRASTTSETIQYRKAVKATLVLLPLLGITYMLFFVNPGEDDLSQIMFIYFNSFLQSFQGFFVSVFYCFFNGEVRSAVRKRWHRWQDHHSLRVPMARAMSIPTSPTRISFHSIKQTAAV
T6 sequence (P24387 whole entry): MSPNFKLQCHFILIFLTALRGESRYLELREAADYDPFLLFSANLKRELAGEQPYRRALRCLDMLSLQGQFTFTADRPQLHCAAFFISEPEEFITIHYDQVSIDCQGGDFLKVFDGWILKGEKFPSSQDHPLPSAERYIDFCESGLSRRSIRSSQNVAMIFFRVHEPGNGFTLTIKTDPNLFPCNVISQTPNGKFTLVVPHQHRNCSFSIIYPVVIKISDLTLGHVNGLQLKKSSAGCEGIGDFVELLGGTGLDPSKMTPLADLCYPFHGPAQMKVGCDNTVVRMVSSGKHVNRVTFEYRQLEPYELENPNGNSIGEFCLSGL
The experiment is described as follows: activators of CRF receptor 2 with binding protein – uHTS hits, confirmation (AID 602473). Conditions: read-out: EC50_Mean. Format: functional.

A further experiment concerns the target Troponin, cardiac muscle (Homo sapiens, UniProt P19429+P45379+P63316). The experiment is described as follows: Fluorescence-based biochemical high throughput dose response assay for activators of the calcium sensitivity of cardiac Regulated Thin Filaments (RTF). [Related pubchem assays (depositor defined):AID493008, AID493018, AID504382, AID504383]. Format: protein-complex assay.

The target of experiment [10] is T7, RNA-binding protein pos-1 (Caenorhabditis elegans, UniProt G5EF15).
T7 sequence (G5EF15 whole entry): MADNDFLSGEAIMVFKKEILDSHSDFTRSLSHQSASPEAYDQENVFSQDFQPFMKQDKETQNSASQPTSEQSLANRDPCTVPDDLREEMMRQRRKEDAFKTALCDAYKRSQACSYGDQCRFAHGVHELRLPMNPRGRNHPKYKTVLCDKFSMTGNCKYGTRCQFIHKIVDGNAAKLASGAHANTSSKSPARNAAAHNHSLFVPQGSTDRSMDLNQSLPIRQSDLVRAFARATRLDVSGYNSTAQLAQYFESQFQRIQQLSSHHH
The experiment is described as follows: disruptors of C. elegans POS-1 RNA interaction – biochemical, fluorescence polarization, dose response (AID 1964).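 Further: purified POS-1 fused to maltose binding protein made in E. coli; potency of compounds blocking POS-1 binding to fluorescent RNA.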

For experiment [11], the target named is T5, Endoribonuclease toxin MazF. The experiment in a line: activation of MazEF endoribonuclease cleavage – biochemical, fluorescence, single-stranded RNA substrate, uHTS hits, dose response (AID 588481). Format: functional.
The next experiment relates to HEK293. The experiment is described as follows: Fluorescence-based counterscreen for potentiators or agonists of NPY-Y2: cell-based high-throughput dose response assay to identify inhibitors of cyclic nucleotide gated ion channel (CNGC) activity. In this assay, the parental HEK293 cell line transfected with a cyclic-nucleotide gated ion channel (CNGC)-based cAMP sensor is used to measure inhibition of isoproterenol-induced CNGC activity by test compound. Format: functional. Conditions: Homo sapiens.

Counter-ions that a name gives are not always drawn. Calls of active or inactive are those of the source. Where only a bound is given, the exact number is not on record here.

Sequence of UDP-galactopyranose mutase (P9WIQ1 whole entry): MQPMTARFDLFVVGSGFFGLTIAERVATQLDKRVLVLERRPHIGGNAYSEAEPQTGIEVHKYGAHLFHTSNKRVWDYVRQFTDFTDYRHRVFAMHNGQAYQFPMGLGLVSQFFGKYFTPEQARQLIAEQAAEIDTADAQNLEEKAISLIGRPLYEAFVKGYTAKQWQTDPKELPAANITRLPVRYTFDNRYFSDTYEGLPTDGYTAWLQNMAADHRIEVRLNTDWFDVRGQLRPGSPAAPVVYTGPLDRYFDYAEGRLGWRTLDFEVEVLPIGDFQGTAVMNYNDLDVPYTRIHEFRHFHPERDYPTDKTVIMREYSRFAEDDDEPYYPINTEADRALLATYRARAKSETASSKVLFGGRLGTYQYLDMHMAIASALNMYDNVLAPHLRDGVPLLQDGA

For the molecule `Cc1csc(NC(=O)CSc2ccc(-c3ccccc3)nn2)n1`, the EC50 in [1] is > 195 µM (not active). Further, in experiment [2], the IC50 was 0.56 µM (active).

Consider `Nc1ccc(C2CCCc3nonc32)c2nonc12` (stereo not given), for which the IC50 in [3] is 39.4 µM (inactive); on Bcl-2-related protein A1 [4], > 100 µM (not active); on Bcl-2-related protein A1 [5] it was > 100 µM (not active); in [6], 42 µM (inactive).

As to `CN(C)c1ccc(/N=C/c2nc(-c3ccccc3)oc2O)cc1`, the IC50 on 14-3-3 protein gamma is 9.68 µM (active); against Heat shock protein HSP90 it was 27.302 µM. The EC50 in [7] was 56.6 µM (inactive); in experiment [9], 7.96 µM (active); on Troponin, cardiac muscle, 3.71 µM (active); in experiment [10] it was 5.7 µM (active); in [11] it was 46.7 µM (inactive). In addition, in [8], the AC50 (as a rule, the concentration at which the activity in the assay is half-maximal) was 68.2 µM (active).

Take `COCCc1ccc(OCC(O)CNC(C)C)cc1` (stereo not given) [METOPROLOL TARTRATE]: in the experiment with HEK293, the EC50 is 2.99 µM (active).
